Assay results as given in US8026073B2, “Screening G protein-coupled receptor antagonists for methods of treating Alzheimer's disease” (Shanghai Institutes for Biological Sciences, Chinese …, priority 2005, dated 2011).
“Also recorded” adds a separate entry of the source.

What was measured:
[1] = stated as a property, no test described; cited from earlier work
APPswe/PS1ΔE9 mice [2] = assay: Morris water maze, APPswe/PS1ΔE9 mice, Animal Model Experiment 1; settings: for percent time spent in the platform quadrant, probe trial: 24 h after the final hidden platform training; for percent time spent in the platform quadrant, probe trial / escape latency, hidden platform training: versus control transgenic mice; for escape latency, visible platform training / escape latency, hidden platform training: oral administration from 4 months of age; for escape latency, visible platform training: transgenic mice; for swim speed as cause of the observed effects: FIG. 15d, 16d, 17d
γ-secretase [3] = assay: γ-Secretase fluorogenic substrate assay, SH-SY5Y neuroblastoma; type: cell-based
Procedure: The enhancement of γ-secretase activity upon activation of receptors is not limited to β-AR. Similar results were also observed when endogenous DOR in SH-SY5Y neuroblastoma (FIG. 7a) or in primary hippocampal cultures (FIG. 7b) were stimulated.
Again, the involvement of LEL in the enhancement of the γ-secretase activity is not limited to β-AR. […] The experiment shown in FIG. 12 was performed with SH-SY5Y neuroblastoma. […] The fractions were subjected to […] (Aβ) assay and fluorogenic substrate assay.

γ-secretase [4] = assay: γ-Secretase fluorogenic substrate assay, acute hippocampal slices; type: cell-based, rat; settings: 1 μM DADLE, 30 minutes
[5] = test system: APPswe/PS1ΔE9 double-transgenic mice; assay: Morris water maze, APPswe/PS1ΔE9 mice, Animal Model Experiment 2; type: in vivo, mouse; settings: for escape latency, visible platform / escape latency, hidden platform: oral daily for 30 days, 2 mg/kg clenbuterol or 1 mg/kg ICI 118,551; for escape latency, hidden platform: versus Sal mice
Procedure: In further animal experiments, four-month old APPswe/PS1ΔE9 double-transgenic mice were orally administered with saline (Sal), 2 mg/kg clenbuterol (Cle, a β2AR-selective agonist) or 1 mg/kg ICI 118,551 (ICI, a β2AR-selective antagonist) daily for 30 days.
The water maze was a circular 1.2 m pool filled with water at 24-25° C. and made opaque by the addition of milk powder. The pool was placed amid fixed spatial cues consisting of boldly patterned curtains and shelves containing distinct objects. […] Mice first underwent visible platform training for 2 consecutive days (eight trials per day), swimming to a raised circular platform (10 cm of diameter) marked with a pole. Visible platform days were split into two training blocks of four trials for statistical analysis. During visible platform training, both the platform location (NE, SE, SW, or NW) and start position (N, […], S, or W) were varied pseudo-randomly in each trial.
Hidden platform raining was conducted over 6 consecutive days (four trials per day), wherein mice were allowed to search for a platform submerged 1.5 cm beneath the surface of the water. Mice failing to reach the platform within 60 sec were led to the platform. During hidden-platform trials, the location of the platform remained constant, and mice entered the pool in one of the four pseudo-randomly selected locations (N, E, S, or W). After each hidden platform trial, mice remained on the platform for 30 sec and were removed from the platform and returned to their home cage.
Twenty-four hours after the final hidden platform training, a probe trial was conducted in which the platform was removed from the pool and mice were allowed to search for the platform for 60 sec. All trials were monitored by a camera mounted directly above the pool and were recorded and analyzed using a computerized tracking system.

APPswe/PS1ΔE9 mice [6] = assay: Cerebral amyloid plaque formation in APPswe/PS1ΔE9 mice after chronic administration; settings: daily for 30 days, 3 nM Iso i.c.v., 2 mg/kg Cle oral, 1 mg/kg ICI 118,551 oral
endogenous β-ARs = assay: Secreted Aβ ELISA in primary hippocampal cultures expressing C99, β-AR stimulation; type: cell-based, rat; settings: 10 μM Iso, 1 h
γ-secretase [7] = assay: γ-Secretase fluorogenic substrate assay, C6 glioma membrane fractions; type: cell-based
γ-secretase [8] = settings: wild-type versus presenilin-deficient MEFs; 10 μM Iso, 30 min
γ-secretase [9] = assay: Immunofluorescence microscopy of acute hippocampal slices, localization of γ-secretase in LEL; settings: Iso treatment
β2AR = target: T1, β2AR (Homo sapiens, UniProt P07550); assay: Secreted Aβ ELISA in HEK293 cells co-expressing β2AR and APPswe; type: cell-based; settings: 10 μM Iso 1 h with 10 μM Pro, or after 6-h pre-treatment with 1 μM L685,458
T1 construct: expressed in transfected cells; host or cells: HEK293
T1 sequence (P07550 whole entry): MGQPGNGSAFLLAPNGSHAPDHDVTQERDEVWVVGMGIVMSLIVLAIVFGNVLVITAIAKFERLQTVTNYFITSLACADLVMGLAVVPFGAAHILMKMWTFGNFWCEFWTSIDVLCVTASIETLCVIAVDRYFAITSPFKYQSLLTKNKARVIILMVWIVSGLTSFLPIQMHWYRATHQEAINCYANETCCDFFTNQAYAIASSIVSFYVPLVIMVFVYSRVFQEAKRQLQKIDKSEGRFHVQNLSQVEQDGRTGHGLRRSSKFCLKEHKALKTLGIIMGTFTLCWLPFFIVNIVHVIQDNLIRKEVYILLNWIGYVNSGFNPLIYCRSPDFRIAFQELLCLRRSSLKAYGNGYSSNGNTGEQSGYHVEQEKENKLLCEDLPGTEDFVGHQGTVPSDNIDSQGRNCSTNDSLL

Aβ40 and Aβ42 = assay: Aβ levels in rat hippocampus after acute injection (rat Aβ ELISA); settings: rats, 2 μg norepinephrine i.c.v. or 0.5 mg/kg clenbuterol i.p.
γ-secretase [10] = assay: γ-Secretase activity in rat hippocampus after acute injection (fluorogenic substrate assay); settings: rats, 2 μg norepinephrine i.c.v. or 0.5 mg/kg clenbuterol i.p.
δ-opioid receptor (DOR) = δ-opioid receptor (DOR) (Homo sapiens, UniProt P41143); settings: C99-transfected HEK293 cells; DADLE plus NALT
Chain of δ-opioid receptor (DOR) (P41143 whole entry): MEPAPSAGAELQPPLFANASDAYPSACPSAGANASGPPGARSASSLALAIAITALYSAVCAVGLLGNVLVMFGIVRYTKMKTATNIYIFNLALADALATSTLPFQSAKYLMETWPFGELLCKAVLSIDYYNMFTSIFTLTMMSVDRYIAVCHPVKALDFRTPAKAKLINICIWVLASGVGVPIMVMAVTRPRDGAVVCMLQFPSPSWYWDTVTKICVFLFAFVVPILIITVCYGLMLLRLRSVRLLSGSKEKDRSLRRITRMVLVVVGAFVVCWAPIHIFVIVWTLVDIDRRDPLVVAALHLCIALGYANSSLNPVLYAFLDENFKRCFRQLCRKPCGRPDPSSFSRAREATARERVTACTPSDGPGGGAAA

γ-secretase [11] = assay: γ-Secretase fluorogenic substrate assay, HEK293 cells treated with transferrin; type: cell-based; settings: transferrin-induced endocytosis
Procedure: However, it is till not clear whether clathrin-mediated endocytosis by itself is […] to induce the enhancement of γ-secretase activity. To answer this question, HEK293 cells were treated with transferrin, which can induce constitutive clathrin-dependent endocytosis of transferrin receptor.

**Q.** With `CC(C)NCC(O)COc1ccc(CCOCC2CC2)cc1` (centres unmarked) [Betaxolol] as the compound, how does the “crossing of the blood-brain barrier (BBB)” value (from here on “crossing”) [1] read?
**A.** The value was “can cross the BBB”.

**Q.** What about the “percent time spent in the platform quadrant, probe trial” value (shortened to “percent time spent”) (APPswe/PS1ΔE9 mice [2]) of the same compound?
**A.** Its value is “showed less significant effect; also recorded: showed no effect”.

**Q.** What about the “escape latency, visible platform training” value (APPswe/PS1ΔE9 mice [2]) of the same compound?
**A.** The value was “no drug effect was observed”.

**Q.** And the “escape latency, hidden platform training” value (APPswe/PS1ΔE9 mice [2])?
**A.** The value was “showed some effect; also recorded: showed some extent of amelioration, but the effect was not statistically significant”.

**Q.** With `COc1ccc(OC)c(C(O)C(C)NC(C)(C)C)c1` (centres unmarked) [Butoxamine] as the compound, how does the “crossing” value [1] read?
**A.** Its value is “can cross the BBB”.

**Q.** And the “swim speed as cause of the observed effects” value (“swim speed as cause” for short) (APPswe/PS1ΔE9 mice [2])?
**A.** The value was “not due to difference in swim speeds”.

**Q.** What about the “escape latency, visible platform training” value (APPswe/PS1ΔE9 mice [2]) of the same compound?
**A.** Its value is “no drug effect was observed”.

**Q.** What about the “escape latency, hidden platform training” value (APPswe/PS1ΔE9 mice [2]) of the same compound?
**A.** Its value is “significantly ameliorated cognitive impairment”.

**Q.** Which γ-secretase activity (γ-secretase [3]; SH-SY5Y neuroblastoma, 1 μM DADLE, 30 minutes) does the source give for `CC(C)C[C@@H](NC(=O)[C@H](Cc1ccccc1)NC(=O)CNC(=O)[C@@H](C)NC(=O)[C@@H](N)Cc1ccc(O)cc1)C(=O)O` [DADLE, [D-Ala^2, D-Leu^5]-enkephalin] here?
**A.** Its γ-secretase activity is “enhanced γ-secretase activity”.

**Q.** What about the “γ-secretase activity in the AP positive fraction” value (γ-secretase [3]; SH-SY5Y, 1 μM DADLE 30 minutes, then fractionated) of the same compound?
**A.** The value was “enhanced the γ-secretase activity in the AP positive fraction”.

**Q.** And the γ-secretase activity (γ-secretase [4])?
**A.** The γ-secretase activity was “enhanced γ-secretase activity”.

**Q.** For `Cc1ccc(OCC(O)C(C)NC(C)C)c2c1CCC2` (centres unmarked) [ICI 118,551], which “percentage time spent on the platform, probe trial” value ([5]; 24-h after final hidden platform training, 1 mg/kg ICI 118,551 oral daily for 30 days, listed as ICI) is on record?
**A.** Its value is “spent greater proportion of time in the platform; also recorded: spent greater proportion of time in the target quadrant”.

**Q.** What about the “escape latency, visible platform” value [5] of the same compound?
**A.** Its value is “small, but statistically insignificant, effects of drug treatments; also recorded: No significant effect”.

**Q.** What about the “escape latency, hidden platform” value [5] of the same compound?
**A.** The value was “displayed a faster learning curve than the Sal mice; also recorded: displayed a faster learning curve than the Sal ones”.

**Q.** And the “crossing” value [1]?
**A.** The value was “can cross the BBB”.

**Q.** What about the “swim speed as cause” value (APPswe/PS1ΔE9 mice [2]) of the same compound?
**A.** Its value is “did not result from changes in swim speeds”.

**Q.** What about the “escape latency, visible platform training” value (APPswe/PS1ΔE9 mice [2]) of the same compound?
**A.** Its value is “no drug effect was observed”.

**Q.** And the “escape latency, hidden platform training” value (APPswe/PS1ΔE9 mice [2])?
**A.** The value was “significantly ameliorated cognitive impairment”.

**Q.** And the cerebral amyloid plaques (APPswe/PS1ΔE9 mice [6])?
**A.** The cerebral amyloid plaques was “significantly reduced the amounts of amyloid plaques; also recorded: effective in suppressing the formation of β-amyloid plaques”.

**Q.** Which results are given for `CC(C)NCC(O)c1ccc(O)c(O)c1` (centres unmarked) [Iso, isoproterenol]?
**A.** secreted Aβ (endogenous β-ARs): increases Aβ production; γ-secretase activity, compound alone (γ-secretase [7]): γ-secretase activity was enhanced; Iso-induced enhancement of γ-secretase activity (γ-secretase [8]): Presenilin-deficiency abolished the Iso-induced enhancement; cerebral amyloid plaques (APPswe/PS1ΔE9 mice [6]): increased cerebral amyloid plaques; also recorded: accelerated amyloid plaque formation; co-localization of PS1 or nicastrin with LAMP-1 (γ-secretase [9]): increased

**Q.** Which “effect on Iso-induced increase in secreted Aβ” value (β2AR) does the source give for `CC(C)C[C@H](NC(=O)[C@H](Cc1ccccc1)C[C@@H](O)[C@H](Cc1ccccc1)NC(=O)OC(C)(C)C)C(=O)N[C@@H](Cc1ccccc1)C(N)=O` [L685,458] here?
**A.** Its value is “abolished the increased production of the secreted Aβ”.

**Q.** With `COCCc1ccc(OCC(O)CNC(C)C)cc1` (centres unmarked) [Metoprolol] as the compound, how does the “percent time spent” value (APPswe/PS1ΔE9 mice [2]) read?
**A.** The value was “showed no effect”.

**Q.** And the “percent time spent” value (APPswe/PS1ΔE9 mice [2]; listed as metoprolol)?
**A.** The value was “had no effect”.

**Q.** What about the “escape latency, visible platform training” value (APPswe/PS1ΔE9 mice [2]) of the same compound?
**A.** Its value is “no drug effect was observed”.

**Q.** What about the “escape latency, hidden platform training” value (APPswe/PS1ΔE9 mice [2]) of the same compound?
**A.** Its value is “showed no effect”.

**Q.** Which results are given for `CC(C)(C)NCC(O)c1cc(Cl)c(N)c(Cl)c1` (centres unmarked) [clenbuterol]?
**A.** escape latency, visible platform [5]: small, but statistically insignificant, effects of drug treatments; also recorded: No significant effect; escape latency, hidden platform [5]: seemed to have no effect; Aβ levels (Aβ40 and Aβ42) in hippocampus (Aβ40 and Aβ42): significantly enhanced; also recorded: increased secreted Aβ 40 and Aβ 42 levels; cerebral amyloid plaques (APPswe/PS1ΔE9 mice [6]): accelerated amyloid plaque formation; cerebral amyloid plaques (APPswe/PS1ΔE9 mice [6]; listed as Cle): increased cerebral amyloid plaques; γ-secretase activity in hippocampus (γ-secretase [10]): significantly enhanced; also recorded: enhanced γ-secretase activity

**Q.** What does the source list for `CC(C)(C)NCC(O)COc1cccc2c1CC(O)C(O)C2` (centres unmarked) [nadolol]?
**A.** percent time spent in the platform quadrant, probe trial (APPswe/PS1ΔE9 mice [2]): had no effect; escape latency, visible platform training (APPswe/PS1ΔE9 mice [2]): No genotype or drug effect; escape latency, hidden platform training (APPswe/PS1ΔE9 mice [2]): showed no effect; escape latency, hidden platform training (APPswe/PS1ΔE9 mice [2]; listed as Nadolol): showed no effect on the impairment

**Q.** Which results are given for `Oc1ccc2c3c1O[C@H]1c4[nH]c5ccccc5c4C[C@@]4(O)[C@@H](C2)N(CC2CC2)CC[C@]314` [naltrindole]?
**A.** effect on DADLE-induced Aβ production (δ-opioid receptor (DOR)): abolished the effect of DADLE; crossing of the blood-brain barrier (BBB) [1]: can cross the BBB; escape latency, visible platform training (APPswe/PS1ΔE9 mice [2]): no drug effect was observed; escape latency, hidden platform training (APPswe/PS1ΔE9 mice [2]): ameliorated cognitive impairment

**Q.** With `NC[C@H](O)c1ccc(O)c(O)c1` [norepinephrine] as the compound, how does the “Aβ levels (Aβ40 and Aβ42) in hippocampus” value (Aβ40 and Aβ42) read?
**A.** Its value is “significantly enhanced; also recorded: increased secreted Aβ 40 and Aβ 42 levels”.

**Q.** And the “γ-secretase activity in hippocampus” value (γ-secretase [10])?
**A.** Its value is “significantly enhanced; also recorded: enhanced γ-secretase activity”.

**Q.** With `CC(C)NCC(O)COc1cccc2ccccc12` (centres unmarked) [propranolol] as the compound, how does the “percent time spent” value (APPswe/PS1ΔE9 mice [2]) read?
**A.** The value was “partially ameliorated the impairment of spatial memory”.

**Q.** What about the “swim speed as cause” value (APPswe/PS1ΔE9 mice [2]) of the same compound?
**A.** The value was “did not result from difference in swim speeds”.

**Q.** What about the “escape latency, visible platform training” value (APPswe/PS1ΔE9 mice [2]) of the same compound?
**A.** Its value is “No genotype or drug effect”.

**Q.** What about the “escape latency, hidden platform training” value (APPswe/PS1ΔE9 mice [2]) of the same compound?
**A.** The value was “partially ameliorate the impairment”.

**Q.** For cholera toxin, which “γ-secretase activity, compound alone” value (γ-secretase [7]) is on record?
**A.** Its value is “did not result in enhanced γ-secretase activity”.

**Q.** For concanavalin A [Con A], which “effect on Iso-induced enhancement of γ-secretase activity” value (γ-secretase [7]; C6 glioma, 10 μM Iso 30 min after pretreatment with 0.25 mg/ml Con A or 0.5 M Suc) is on record?
**A.** The value was “abolished”.

**Q.** With pertussis toxin [PTX] as the compound, how does the “effect on DADLE-induced enhancement of γ-secretase activity” value (γ-secretase [3]; SH-SY5Y, 1 μM DADLE after 12 hours pre-treatment with 200 ng/ml PTX) read?
**A.** The value was “not abolished; also recorded: did not alter the enhancement of γ-secretase activity”.

**Q.** With transferrin as the compound, how does the γ-secretase activity (γ-secretase [11]) read?
**A.** Its γ-secretase activity is “does not lead to enhanced γ-secretase activity; also recorded: failed to enhance γ-secretase activity”.
